Reference: patent US20240294571A1, “ANALGESIC AND ANESTHETIC PEPTIDES AND OTHER AGENTS” (The Research Foundation for The State University of New York, priority 2019, published 2024)
Ends that are not written are not given here. Peptide text beside a SMILES is read from it. * marks the point of attachment. Myristoyl = CCCCCCCCCCCCCC(=O)*

What was measured:
C57BL/6 mice [1] = assay: Formalin acute inflammatory pain assay; type: in vivo, mouse
Method: Formalin Assay. Male and female C57BL/6 mice were randomly assigned to either control or experimental groups. Animals were habituated to the formalin testing chamber for 30 minutes or until exploratory behavior ceased the day of experimentation. Following the habituation period, animals were removed from the chamber and given an intraplantar injection of 5% formalin into the ipsilateral hind paw, then immediately placed back into the testing chamber and recorded. Animals were recorded for at least 90 minutes after formalin injection using Active WebCam software. Videos were subsequently scored for number of paw licks, number of paw lifts, and number of full body flinches. All behaviors were scored for a full minute, every five minutes, for 90 minutes of video recording.
Formalin Assay: Male and female C57BL/6 mice were randomly assigned to either control or experimental groups. […] Following the habituation period, animals were removed from the chamber and given an intraplantar injection of 5% formalin into the ipsilateral hind paw, then immediately placed back into the testing chamber and recorded. Animals were recorded for at least 90 minutes after formalin injection using Active WebCam software. Videos were subsequently scored for number of paw licks, number of paw lifts, and number of full body flinches. […]

rat hind paws = assay: Hematoxylin & eosin staining, immune cells and gait in incisional pain model; type: in vivo
Method: (A) Animals were treated as previously stated in the Methods section. However, no behavior was collected, instead, animals were sacrificed via transcardial perfusion, and tissue was collected for staining. (Top) Representative images depicting hematoxylin & eosin staining of rat hind paws in scrambled (n=2) and AP2 inhibitory peptide groups (n=2). Localized immune cells can be observed in the dermis in each condition. (Bottom) 24 hours following incision, there is a rapid increase in the number of immune cells. […] (B) Representative images of incision site in animals that received either the scrambled peptide (top) or AP2 inhibitory peptide (bottom). Black arrows highlight significant granuloma-like structures.

AP2 complex = AP2 complex (Homo sapiens, UniProt O94973+P53680); settings: peptide sequence derived from human CD4 di-leucine motif; read-out: affinity for the AP2 complex; cited from earlier work
C57BL/6 mice [2] = assay: CFA-induced inflammatory pain, thermal sensitivity (Hargreaves); type: in vivo, mouse; settings: for tau (τ), time constant of thermal sensitivity recovery: time in days
Method: Freund's Complete Adjuvant Chronic Pain Model. C57BL/6 mice were anesthetized (induction: 3%, maintenance: 2%) and placed in a prone position. After the animals were under a surgical plane of anesthesia, denoted by a loss of reaction to both a tail and hind paw pinch, they received a 20 μL injection of Imject™ Freund's Complete Adjuvant (FCA; Thermo Fisher Scientific) and allowed to recover. Behavior testing resumed 24 hours post FCA injection. Each cohort of animals received FCA from previously unopened, vacuum sealed glass ampules to minimize variations between groups.
Hargreaves Assay. Animals were placed on an enclosed elevated frosted glass platform (Ugo Baseline) and allowed 30 minutes for habituation. Once exploratory behavior ceased, an automatic Hargreaves apparatus was maneuvered (Ugo Baseline) underneath the hind paw(s) of the animals. Paw withdrawal latency was calculated as the average of four trials per hind limb. Each trial was followed by a 5-minute latency period to allow adequate recovery time between trials.
Complete Freund's Adjuvant Induced Inflammatory Pain: Male and female C57BL/6 mice were randomized into experimental and control groups. In order to maintain consistency in regards to site of injection, mice were anesthetized and injected with a 32-gauge disposable syringe filled with 20 μL of Imject™ Complete Freund's Adjuvant (Thermo Fisher Scientific) into the plantar surface of the right hind paw and allowed to recover. Behavior testing resumed 24 hours post-CFA injection at which point the animals received a 20 μL intraplantar injection of 100 μM (3.154 μg total) lipidated peptidomimetic immediately after the conclusion of day 1 behavioral testing. In order to minimize experimental error between groups, each group of animals received CFA from previously unopened, vacuum-sealed glass ampules ensuring CFA of identical specific activity.
(§1) Thermal Sensitivity Testing: Prior to testing, animals were allowed to habituate to the testing room for 1 hour on each day. Animals were placed on an enclosed elevated frosted glass platform (Ugo Baseline) and allowed 30 minutes for habituation. Once exploratory behavior ceased, an automatic Hargreaves apparatus was maneuvered (Ugo Basile) underneath the hind paw(s) of the animals. Paw withdrawal latency was calculated as the average of four trials per hind limb. Each trial was followed by a 5-minute latency period to allow adequate recovery time between trials.

rats = assay: Incisional post-operative pain model, thermal sensitivity; type: in vivo, rat; settings: for tau (τ), rate of recovery following incision: exponential decay fit, time in days
Method: Incisional post-operative pain model: To model post-operative pain, an established rat incisional model was used. In short, male and female rats were randomized into either experimental or control groups. On the day of surgery, the animals were anesthetized and placed into a prone position. Once the animal was under a surgical plane of anesthesia, a 200 μL intraplantar injection of 100 μM (31.54 μg total) lipidated peptidomimetic was made into the ipsilateral hind paw. Afterwards, the animals were returned to their home cage and allowed to recover. On the same day, 6 hours after the pre-injection, the animals were anaesthetized, placed into a prone position, and prepared for incision injury. The ipsilateral hind paw was sterilized using successive swabs of chlorohexidine, 70% ethanol, and iodine. Then, using a size 10 scalpel, a 1 cm long incision was made into the plantar surface of the ipsilateral hind paw. Short, yet firm, strokes were used to make incisions through the skin, fascia, and muscle of the hind paw. Following incision, two 50 μL injections, containing 100 μM (7.885 μg per injection) of the lipidated peptidomimetic, were made into each “half” of the incised plantar muscle. Following injection into the muscle, the skin was sutured using 6/0 silk sutures (Ethicon) in a continuous manner to discourage removal of sutures. Upon conclusion of suturing, four 25 μL injections containing 100 μM (3.9425 μg per injection) of the lipidated peptidomimetic, were made into a “quadrant” adjacent to the incision. Finally, the animals were returned to their home cage and allowed to recover for at least 16 hours.
as §1

[3] = single i.pl. peptide injection (100 μM, 20 μL) 24 h after CFA, n=8
[4] = peptide 100 μM 6 h before and immediately after plantar incision

AP2 complex, sequence (O94973 1-621 limits assumed): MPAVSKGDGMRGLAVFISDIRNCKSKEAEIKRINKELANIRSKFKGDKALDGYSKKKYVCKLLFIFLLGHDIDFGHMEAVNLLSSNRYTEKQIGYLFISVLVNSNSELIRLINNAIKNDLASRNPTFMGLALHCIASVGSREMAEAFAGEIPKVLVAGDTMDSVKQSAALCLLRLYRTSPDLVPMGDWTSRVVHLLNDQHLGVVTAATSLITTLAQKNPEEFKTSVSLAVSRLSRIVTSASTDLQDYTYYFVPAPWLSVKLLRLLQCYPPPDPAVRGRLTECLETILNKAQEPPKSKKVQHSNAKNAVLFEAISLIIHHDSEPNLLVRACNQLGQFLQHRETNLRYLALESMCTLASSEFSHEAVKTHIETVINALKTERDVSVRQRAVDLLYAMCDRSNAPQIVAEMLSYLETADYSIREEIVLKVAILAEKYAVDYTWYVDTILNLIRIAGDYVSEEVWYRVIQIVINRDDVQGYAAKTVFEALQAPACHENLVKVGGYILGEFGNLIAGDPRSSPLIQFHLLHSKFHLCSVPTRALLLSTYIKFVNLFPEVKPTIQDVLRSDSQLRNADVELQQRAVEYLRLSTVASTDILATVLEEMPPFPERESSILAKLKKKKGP
AP2 complex, sequence (P53680 whole entry): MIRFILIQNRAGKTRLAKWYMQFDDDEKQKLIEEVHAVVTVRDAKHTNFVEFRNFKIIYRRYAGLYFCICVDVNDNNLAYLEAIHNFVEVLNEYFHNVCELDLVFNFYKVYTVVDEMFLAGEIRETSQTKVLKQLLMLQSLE
AP2 complex, sequence (P63010 1-591 partner limits assumed): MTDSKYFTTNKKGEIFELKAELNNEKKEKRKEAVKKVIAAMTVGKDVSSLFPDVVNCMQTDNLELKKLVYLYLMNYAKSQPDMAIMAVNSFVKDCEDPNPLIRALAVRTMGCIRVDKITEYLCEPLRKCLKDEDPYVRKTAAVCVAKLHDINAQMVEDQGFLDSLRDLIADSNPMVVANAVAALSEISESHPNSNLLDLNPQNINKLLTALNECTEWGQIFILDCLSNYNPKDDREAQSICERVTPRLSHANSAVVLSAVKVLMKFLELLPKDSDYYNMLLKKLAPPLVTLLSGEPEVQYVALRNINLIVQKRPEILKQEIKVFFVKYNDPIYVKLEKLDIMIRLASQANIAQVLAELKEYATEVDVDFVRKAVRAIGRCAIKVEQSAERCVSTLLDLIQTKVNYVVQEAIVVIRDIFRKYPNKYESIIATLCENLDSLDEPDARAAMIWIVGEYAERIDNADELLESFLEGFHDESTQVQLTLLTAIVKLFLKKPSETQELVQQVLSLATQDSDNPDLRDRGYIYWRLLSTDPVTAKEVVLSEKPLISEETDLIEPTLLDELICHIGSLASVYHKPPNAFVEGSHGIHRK
AP2 complex, sequence (Q96CW1 whole entry partner): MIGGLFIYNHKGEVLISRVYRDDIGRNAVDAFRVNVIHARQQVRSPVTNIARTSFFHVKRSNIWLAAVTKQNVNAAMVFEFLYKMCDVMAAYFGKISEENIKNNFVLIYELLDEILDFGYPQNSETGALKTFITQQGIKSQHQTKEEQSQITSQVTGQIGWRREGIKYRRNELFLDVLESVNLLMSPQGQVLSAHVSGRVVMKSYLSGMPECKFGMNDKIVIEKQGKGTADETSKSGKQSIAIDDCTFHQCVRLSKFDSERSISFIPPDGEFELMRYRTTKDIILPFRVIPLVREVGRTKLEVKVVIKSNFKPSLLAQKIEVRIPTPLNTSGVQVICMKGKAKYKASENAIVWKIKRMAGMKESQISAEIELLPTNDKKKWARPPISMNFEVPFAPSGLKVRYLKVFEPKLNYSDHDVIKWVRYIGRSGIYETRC

Q: With “RASDKQTLLPNQ (SEQ ID NO: 5) (also: phosphorylated, site not given here) [P4, di-leucine based peptide, parent protein CD3, phosphorylated]” as the compound, how does the “nocifensive (licking and lifting) behaviors” value (C57BL/6 mice [1]; di-leucine peptide analogs, 5% formalin, n=3 per analog) read?
A: significant decreases

Q: With `CCCCCCCCCCCCCC(=O)N[C@@H](CCCNC(=N)N)C(=O)N[C@@H](CCSC)C(=O)N[C@@H](CO)C(=O)N[C@@H](CCC(=O)O)C(=O)N[C@H](C(=O)N[C@@H](CCCCN)C(=O)N[C@@H](CCCNC(=N)N)C(=O)N[C@@H](CC(C)C)C(=O)N[C@@H](CC(C)C)C(=O)N[C@@H](CO)C(=O)N[C@@H](CCC(=O)O)C(=O)O)[C@@H](C)CC` [AP2 inhibitor peptide, RMSEIKRLLSE (SEQ ID NO: 1)] (Myristoyl-RMSEIKRLLSE-OH; N-terminus and C-terminus assumed) as the compound, how does the “granuloma-like clustering of immune cells” value (rat hind paws; 24 hours following incision, n=2) read?
A: dense clustering of immune cells

Q: And the changes in gait (rat hind paws; after injection of the peptide)?
A: did not potentiate any observable changes

Q: And the Kd (AP2 complex)?
A: 650 nM

Q: Which results are given for “IERLSEMSLRK (SEQ ID NO: 6) [scrambled peptide]”?
A: cumulative phase 2 paw licking behavior (C57BL/6 mice [1]; single i.pl. peptide injection (100 μM, 20 μL) 24 h before 5% formalin, n=6): 184±22; paw withdrawal latency day-1 (C57BL/6 mice [2]; 24 h after CFA, before the single i.pl. peptide injection, n=8): 2.4 ± 0.3 s; tau (τ), time constant of thermal sensitivity recovery (C57BL/6 mice [2]; all animals, first order exponential decay fit): 4.82; tau (τ), time constant of thermal sensitivity recovery (C57BL/6 mice [2]; female mice, exponential decay fit): 3.23; tau (τ), time constant of thermal sensitivity recovery (C57BL/6 mice [2]; male mice, exponential decay fit): 6.45; paw withdrawal latency day-2 (C57BL/6 mice [2]; [3]): 3.8 ± 0.5 s; paw withdrawal latency day-3 (C57BL/6 mice [2]; [3]): 3.8 ± 0.4 s; paw withdrawal latency day-5 (C57BL/6 mice [2]; [3]): 5.5 ± 0.6 s; paw withdrawal latency day-9 (C57BL/6 mice [2]; [3]): 7.0 ± 0.8 s; tau (τ), rate of recovery following incision (rats; all rats): 9.09; tau (τ), rate of recovery following incision (rats; female rats): 11.72; tau (τ), rate of recovery following incision (rats; male rats): 7.46; paw withdrawal latency day-1 (rats; [4]): 5.7 ± 0.4 s; paw withdrawal latency day-2 (rats; [4]): 6.4 ± 0.4 s; paw withdrawal latency day-3 (rats; [4]): 7.4 ± 0.5 s; paw withdrawal latency day-4 (rats; [4]): 7.4 ± 0.5 s; paw withdrawal latency day-5 (rats; [4]): 8.3 ± 0.6 s; paw withdrawal latency day-6 (rats; [4]): 8.6 ± 0.5 s; paw withdrawal latency day-7 (rats; [4]): 11.7 ± 0.6 s; paw withdrawal latency day-8 (rats; [4]): 11.4 ± 0.4 s; paw withdrawal latency day-9 (rats; [4]): 12.0 ± 0.6 s
